{"source": "patent US20230340127A1", "about": "“METHODS AND COMPOSITIONS FOR CANCER TREATMENT BY INHIBITION OF FBXO44” (Sanford Burnham Prebys Medical Discovery Institute, priority 2022, published 2023)", "tested_on": "MDA-MB-231 or 4T1 cells", "assay": "qRT-PCR of endogenous retroelements, IFN-α/β, ISGs and PD-L1 in F5446-treated cells", "assay_type": "cell-based", "details": "cancer cells (MDA-MB-231, 4T1), qRT-PCR (FIGS. 10F-10G)", "procedure": "Quantitative (q)RT-PCR: total RNA was isolated using the RNeasy Plus Mini Kit (Qiagen no. 74134). cDNA was synthesized using qScript cDNA SuperMix (Quantabio no. 95048) following the manufacturer's instructions. qPCR reactions were performed using SYBR Select Master Mix (Thermo Fisher Scientific no. 4472908) and a Stratagene Mx3000P instrument (Agilent Technologies). Thermal cycling conditions included an initial denaturation step of 95° C. for 10 min and 40 cycles at 95° C. for 15 sec and 60° C. for 60 sec. Analyses were carried out in triplicate for each data point. The qPCR primers used for gene expression analysis of human REs and genes included MajSAT-[…] (SEQ ID NO: 1) and […] (SEQ ID NO: 2), mcBox-[…] (SEQ ID NO: 3) and […] (SEQ ID NO: 4), SATIII-[…] (SEQ ID NO: 5) and […] (SEQ ID NO: 6), Alu-[…] (SEQ ID NO: 7) and […] (SEQ ID NO: 8), L1 ORF1-TGGCCCCCACTCTCTTCT (SEQ ID NO: 18) and […] (SEQ ID NO: 19), L1 ORF2-[…] (SEQ ID NO: 20) and […] (SEQ ID NO: 21), L1 5′-UTR-AAGCAAGCCTGGGCAATG (SEQ ID NO: 22) and […] (SEQ ID NO: 23), HERV-E-[…] (SEQ ID NO: 24) and GCAGCCTAGGTCTCTGG (SEQ ID NO: 25), HERV-F-CCTCCAGTCACAACAACTC (SEQ ID NO: 26) and TATTGAAGAAGGCGGCTGG (SEQ ID NO: 27), HERV-K-[…] (SEQ ID NO: 28) and […] (SEQ ID NO: 29), ERVL-[…] (SEQ ID NO: 30) and […] (SEQ ID NO: 31), GAPDH-[…] (SEQ ID NO: 32) and […] (SEQ ID NO: 33), FBXO44-[…] (SEQ ID NO: 34) and […] (SEQ ID NO: 35), SUV39H1-[…] […]"}
{"smiles": "COC(=O)c1cc2c(n1S(=O)(=O)c1ccc(Cl)cc1)C(=O)C(=O)c1[nH]cc(C(=O)OCc3ccccc3)c1-2", "note": "[F5446]", "values": [{"measurement": "expression of various REs and IFN signaling", "value": "activated"}]}
